Data from patent publication US11028141B2, “Therapeutic for the prevention and/or treatment of weight gain and/or diabetes” (priority 2016, dated 2021).

How the values were obtained:
[1] = tested on: NCI H716 cells; assay type: cell-based, human
Experimental: Identifying the microbial-derived compound responsible for GLP-1 stimulatory activity—To narrow down the bacterial component responsible for GLP-1 secretion in vitro, and for metabolic disease marker modulation in vivo, size fractionation studies were performed using Amicon centrifuge filtration tubes and exposure of the fractions on NCI H716 cells.
To further identify the component responsible for the activity, bacterial supernatants were analyzed using a Thermo Orbitrap Fusion mass spectrometer equipped with an Easy Nanospray HPLC system.

[2] = tested on: GLUTag cells; experiment: GLP-1 secretion by GLUTag cells, measured by ELISA; assay type: cell-based, murine; settings: cell-free supernatants or PMA positive control on GLUTag cells
Experimental: S. epidermidis has GLP-1 stimulatory activity in vitro in NCI H716 and GLUTag cells—In order to identify bacterial strains capable of eliciting GLP-1 secretion, 1500 microbial supernatants were screened using human NCI H716 cells. […] Following 16S rRNA sequencing, all 45 stimulatory strains came back as strains of S. epidermidis. Incubation of cell-free supernatants from two of the stimulatory strains with the highest activity, S. epidermidis JA1 and JA8 on NCI H716 cells stimulated a release of 3155±276 pM and 2518±141 pM GLP-1, respectively (FIG. 6A). GM17 media control and the PMA positive control had GLP-1 levels of 565±188 pM and 1767±120 pM GLP-1, respectively, indicating an approximate 2-fold increase in activity by JA1 over the positive PMA control. It was confirmed that JA1 and JA8 could stimulate GLP-1 secretion in a second model, murine GLUTag cells. S. epidermidis JA1 and JA8 led to the release of 1123±107 pM and 984±40 pM GLP-1, respectively (FIG. 6B). The GM17 media control and the PMA positive control had GLP-1 levels of 327±35 pM and 305±14 pM, respectively, indicating no real stimulation by PMA. […] None of the S. epidermidis bacterial cell-free supernatants had detectable toxicity on NCI H716 (FIG. 6C) and GLUTag (FIG. 6D) cells, as determined by a PrestoBlue resazurin-based analysis which measures aerobic respiration as an indicator of cell viability.

| Molecule | release of GLP-1 ([1]; cell-free supernatants or PMA positive control on NCI H716 cells) [pM] | release of GLP-1 [2] [pM] | GLP-1 stimulatory activity (GLP-1) ([1]; 20 μM peptide, NCI H716 cells) [pM] | GLP-1 stimulatory activity of synthesized peptides ([1]; varying concentrations, NCI H716 cells) |
| --- | --- | --- | --- | --- |
| CCCCCCCCCCCCCC(=O)O[C@@H]1[C@@H](C)[C@@]2(O)[C@@H](C=C(CO)C[C@]3(O)C(=O)C(C)=C[C@@H]23)[C@@H]2C(C)(C)[C@]12OC(C)=O [PMA, reference compound] | 1767 ± 120 | 305 ± 14 | – | – |
| MAADIISTIGDLVKWIIDTVNKFTKK [24_25insT] | – | – | 1283.5 ± 798 | activity |
